Assay results published in patent US20200390755A1, “COMPOUND FOR TREATING NERVOUS SYSTEM DISEASES AND USE THEREOF” (SHAANXI MICOT TECHNOLOGY CO., LTD., priority 2018, published 2020).

Columns and labels:
Format in all cases: in vivo, mouse
[1] = tested on: N171-82Q HD mice; experiment: Immunohistochemical analysis of mHtt protein aggregates in neurocortex (EM48); details: 5 mg/kg/d until 25 weeks, six visual fields, n = 3
Description: (§1) 7-week-old N171-82Q HD male mice were paired with female B6C3F1/J hybrid mice to obtain newborn mice. From 21 days of age, male mice were housed in separate cages. 0.5 cm of mouse tail tissue was removed to extract DNA to determine the genotype of the mouse, such that N171-82Q HD mice and WT mice needed for the experiment were obtained. The mice were randomly divided into WT Vehicle group (normal mice), WT test compound group (administration group of normal mice, 5 mg/kg/d, n=10), HD Vehicle group (blank group of HD mice, n=15), HD test compound group (administration groups 1-5 of HD mice, 5 mg/kg/d, n=10). The test compound was suspended in 1% CMC-Na solution and administered by intragastric administration until the end of the study. The weights of the mice were measured every week. Behavioral tests were performed at 12 weeks, 18 weeks, and 24 weeks of age to investigate motor function. At 20 weeks, 3 samples of tissue from each group were used for western blotting and immunohistochemistry. At 24 weeks, MRI scans were performed. At the end of the study, the effect of the test compound on the mortality of mice was evaluated.
After the behavioral evaluation of the mice in each experimental group was completed and the administration continued until 25 weeks, 3 mice were taken from each group for […]. The right brain isolated from the mice was post-fixed in 4% paraformaldehyde for 24 h. The post-fixed brain tissue was put into 30% sucrose solution to allow it to sink to the bottom, and then brain slices with a thickness of 35 m were cut along the crown with a freezing microtome and placed in DPBS for storage. The stored brain slices were rinsed once with PBS, and blocked with 1 mL goat serum+9 mL PBS+1% TritonX-100 at room temperature on a shaker for 2˜3 h. After blocking, the brain slices were rinsed for 3 times with PBS, 5 min each time. Brain slices were taken out with a small brush and placed in a 24-well plate with primary antibody (anti-Huntingtin, clone mEM48, 1:25, mouse, prepared with blocking solution) for overnight incubation on a shaker in cold room at […]. After washing with PBS, brain slices were placed in a 24-well plate with secondary antibody (555, anti-mouse) for washing, and incubated on a shaker at room temperature for 2 h. After washing with PBS, brain slices was placed in a 24-well plate containing 800 μL DAPI (prepared with PBS, 1:10000) for staining on a shaker at room temperature for 10 min. The brain slices were taken out and placed in a 24-well plate containing 800 μL of PBS for washing on a shaker at room temperature for 10 min. The slide was placed flat on the experimental table with the front side facing upwards, and PBS was added dropwise on the slide to expand the brain slice in PBS. After drying, the mHtt protein was immunofluorescently stained with EM48 antibody (anti-Huntingtin) and photographed for observation.
After immunofluorescence staining of brain tissue, cells with mHtt protein aggregation in six visual fields in the right neurocortex were counted, and the average value was taken for analysis and statistics. A representative image of a neurocortex immunostained with the EM48 antibody for test compound example 1 is shown in FIG. 5, in which the scale bars are 50 μm, and the light-colored dots are cells with mHtt protein aggregation.

[2] = tested on: N171-82Q HD mice; experiment: Slope balance beam experiment, HD mice; details: 5 mg/kg/d intragastric
Description: as §1
(§2) The software Sigmaplot 13.0 was used for statistical analysis of the data, and the data of each group was expressed as mean standard error (x±SEM). Behavioral test results were analyzed using two-way (genotype and processing factor) ANOVA and post-ho tests, the comparison and statistics of weight data were performed using two-way (genotype and age) ANOVA of repeated measures, and mortality was counted using Kaplan-Meier method. Other measurement data were analyzed by one-way ANOVA. P<0.05 was considered statistically significant.
(§3) The motor function of mice was evaluated by the rotarod experiment and three types of balance beam experiments. The shorter the time for mouse to cross the balance beam, and the longer the time to drop, the stronger the coordination ability of the mouse.
(§4) A square balance beam with a length of 100 cm and a width of 11 mm was placed at a 45-degree angle to the horizontal ground. A black box (12×12×12 cm) was placed at the end of the balance beam, and the starting platform was illuminated by bright lights. Spacers were placed under the balance beam to provide cushioning in case that the animal falls off the beam. One hour before the test, the mice were trained to cross the beam three times at one-eighth, one-quarter, and full-length distances from the black box, respectively. If the mice stopped walking during training, they were gently pressed with long forceps on the tail to encourage movement. After the training experiment, the mice rested for at least one hour in an undisturbed environment. In the experiment, the maximum time for each mouse to cross the balance beam was set to 60 seconds. If the time for crossing the beams was greater than 60 seconds, it was recorded as 60 seconds.

[3] = tested on: N171-82Q HD mice; experiment: High-altitude balance beam (11 mm) experiment 1, HD mice; details: 5 mg/kg/d intragastric
Description: as §1, §2, §3, §4
a round balance beam with a length of 80 cm and a diameter of 11 mm was place at a height of about 50 cm from the ground. The following steps are the same as the slope balance beam experiment.

Structure (SMILES)	Average number of cells with mHtt protein aggregation [1]	Time for crossing the beams, slope balance beam ([2]; 12 w) [s]	Time for crossing the beams, slope balance beam ([2]; 18 w) [s]	Time for crossing the beams, slope balance beam ([2]; 24 w) [s]	Time for crossing the beams, high-altitude balance beam (11 mm) ([3]; 12 w) [s]	Time for crossing the beams, high-altitude balance beam (11 mm) ([3]; 18 w) [s]	Time for crossing the beams, high-altitude balance beam (11 mm) ([3]; 24 w) [s]
COc1ccc2c(=O)cc(-c3ccc(N4CCCCC4)cc3)oc2c1OC [Example 2, 7,8-dimethoxy-2-(4-(piperidin-1-yl)phenyl)-4H-chromen-4-one]	158.449 ± 13.260	17.88 ± 2.83	17.13 ± 4.76	19.00 ± 6.84	8.98 ± 1.75	8.59 ± 2.18	9.68 ± 2.97
CC1(C)CCN(c2ccc(-c3cc(=O)c4ccc(O)c(O)c4o3)cc2)CC1 [Example 4, 2-(4-(4,4-dimethylpiperidin-1-yl)phenyl)-7,8-dihydroxy-4H-chromen-4-one]	155.286 ± 9.567	16.78 ± 5.98	17.00 ± 5.65	18.38 ± 5.10	8.57 ± 2.12	8.99 ± 2.29	9.38 ± 2.94
O=c1cc(-c2ccc(N3CCCCC3)cc2)oc2c(O)c(O)ccc12 [Example 1, 7,8-dihydroxy-2-(4-(piperidin-1-yl)phenyl)-4H-chromen-4-one]	152.500 ± 7.920	15.18 ± 3.95	14.09 ± 3.18	18.09 ± 6.02	8.20 ± 1.64	7.55 ± 2.42	9.18 ± 3.84
CN(C)C1CCN(c2ccc(-c3cc(=O)c4ccc(O)c(O)c4o3)cc2)CC1 [Example 3, 2-(4-(4-(dimethylamino)piperidin-1-yl)phenyl)-7,8-dihydroxy-4H-chromen-4-one]	148.794 ± 10.157	13.64 ± 6.90	14.37 ± 5.81	15.43 ± 4.58	7.94 ± 1.64	8.15 ± 1.96	8.38 ± 3.78
CC1CC(C)CN(c2ccc(-c3cc(=O)c4ccc(O)c(O)c4o3)cc2)C1 (centres unmarked) [Example 5, 2-(4-(3,5-dimethylpiperidin-1-yl)phenyl)-7,8-dihydroxy-4H-chromen-4-one]	151.687 ± 8.365	14.94 ± 6.59	16.67 ± 5.77	18.58 ± 7.34	8.04 ± 1.67	8.61 ± 3.25	9.77 ± 4.89
